Reference: PubChem BioAssay (NCI)
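Cultured in 96-well plates, cells were exposed to test compound for 48 hours across five concentrations. Abbreviation: GI50, concentration required for 50% inhibition of growth. The concentration for full growth arrest is given as TGI.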 Where a SMILES comes first, the peptide text is derived from it. [ ]: non-standard residue; d: D form. NMeY = CN[C@@H](Cc1ccc(O)cc1)C(=O)O; dNMeF = CN[C@H](Cc1ccccc1)C(=O)O; Sar = CNCC(=O)O

Assays:
Assay in all cases: NCI tumour cell line growth inhibition, 48 h
[1] = tested on: SK-OV-3 ovarian
[2] = tested on: SW-620 colon
[3] = tested on: RXF 393 renal
[4] = tested on: TK-10 renal
[5] = tested on: MOLT-4 leukemia
[6] = tested on: SK-MEL-28 melanoma
[7] = tested on: HCT-116 colon
[8] = tested on: OVCAR-3 ovarian
[9] = tested on: IGROV1 ovarian
[10] = tested on: NCI-H460 lung

Structure (SMILES)	TGI [1]	TGI [2]	TGI [3]	TGI [4]	TGI [5]	TGI [6]	TGI [7]	TGI [8]	TGI [9]	TGI [10]	GI50 [1]	GI50 [2]	GI50 [3]	GI50 [4]	GI50 [5]	GI50 [6]	GI50 [7]	GI50 [8]	GI50 [9]	GI50 [10]
NCCCC1NC(=O)/C(=C(O)/C=C/C2CCC[C@@H]2CC2SCCS2)C1=O (some centres not stated)	> 100 µM	> 100 µM	> 100 µM	> 100 µM	> 100 µM	> 100 µM	> 100 µM	> 100 µM	> 100 µM	> 100 µM										
O=C(O)c1ccc(NCc2nc3cc4ccccc4cc3[nH]2)cc1	> 100 µM	> 100 µM	> 100 µM	> 100 µM	> 100 µM	> 85.2 µM	> 100 µM	> 100 µM	> 100 µM	> 100 µM										
COc1ccc(/C=C/C(=O)c2ccc3cc(OC)c(OC)cc3c2)cc1OC	83.5 µM	14.2 µM	8.15 µM	9.97 µM	9.53 µM	32.3 µM	> 100 µM	13.5 µM	63.4 µM	12.5 µM	4.41 µM	3.32 µM	2.82 µM	3.17 µM	3.07 µM	11.2 µM	2.64 µM	3.2 µM	4.72 µM	3.35 µM
CC[C@H](C)[C@@H]1NC(=O)[C@H](Cc2ccc(O)cc2)N(C)C(=O)[C@H](Cc2ccccc2)NC(=O)CN(C)C(=O)[C@@H]2CCCN2C(=O)[C@@H](Cc2ccccc2)N(C)C(=O)[C@H](CC(C)C)NC1=O (cyclo(F[NMeY]IL[dNMeF]P[Sar]))	7.73 µM	5.32 µM	3.27 µM	9.65 µM	10.6 µM	1.46 µM	10.5 µM	3.39 µM	5.2 µM	1.94 µM	0.446 µM	0.199 µM	0.519 µM	1.22 µM	0.314 µM	0.194 µM	0.155 µM	0.248 µM	0.21 µM	0.184 µM
COc1ccc2nc(NC(=O)C(=O)C(C(=O)c3ccccc3-c3ccccc3)C3OC(=O)c4ccccc43)sc2c1 (configuration not stated)	88 µM	50.1 µM	23.8 µM	48.9 µM	89.5 µM	51 µM	27.6 µM	48.2 µM	71.7 µM	50.2 µM										
COc1cc([C@@H]2c3cc4c(cc3[C@@H](NCc3ccccc3)C3COC(=O)[C@@H]32)OCO4)cc(OC)c1O (some centres not stated)	> 58.9 µM	57.5 µM	72.2 µM	> 61.7 µM	13 µM	> 100 µM	> 100 µM	42.5 µM	> 92.3 µM	15.8 µM										
CNNC(=N\S(=O)(=O)c1cc(C(=O)Nc2ccc(Cl)cc2)c(Cl)cc1SCc1ccccc1)/N=C/c1ccc([N+](=O)[O-])s1	> 100 µM	> 100 µM	> 100 µM	> 100 µM	> 100 µM	> 100 µM	> 100 µM	> 100 µM	> 100 µM	> 27.7 µM	> 100 µM	> 20.9 µM	> 100 µM	> 100 µM	> 100 µM	> 100 µM	2.3 µM	> 100 µM	> 70.1 µM	3.91 µM
O=C(O)CCCCCO	> 100 µM	> 100 µM	> 100 µM	> 100 µM	> 100 µM	> 100 µM	> 100 µM	> 100 µM	> 100 µM	> 100 µM										
COC(=O)c1ccc2c(c1)C(=O)c1c-2n(CCCN)c(=O)c2cc([N+](=O)[O-])ccc12	1.65 µM	1.27 µM	0.118 µM	2.92 µM	0.833 µM	0.81 µM	0.959 µM	1.55 µM	0.352 µM	1.1 µM	0.0332 µM	< 0.01 µM	< 0.0345 µM	1.05 µM	< 0.01 µM		0.0337 µM	0.242 µM	< 0.0156 µM	0.0434 µM
Nc1c(C(=O)c2cccc(CCC3(O)CCCC3)c2)cnn1-c1ccc(F)cc1	> 25 µM	> 25 µM	> 25 µM	> 25 µM	> 25 µM	> 25 µM	> 25 µM	> 25 µM	> 25 µM	> 25 µM	> 25 µM	> 20.7 µM	16.9 µM	18.8 µM	10.2 µM	> 22.9 µM	18.5 µM	> 18 µM	> 25 µM	20.5 µM
O=C(/C=C/c1ccccc1O)c1cccnc1	> 100 µM	> 100 µM	> 100 µM	> 100 µM	> 100 µM	> 100 µM	> 100 µM	> 100 µM	> 100 µM	> 100 µM										
S=C=NCc1ccccc1	25.1 µM	> 37.3 µM	3.18 µM	12.2 µM	4.37 µM	10.2 µM	2.36 µM	11.3 µM	8.17 µM	24.5 µM										
O=C(Nc1ccccc1)NS(=O)(=O)c1ccc(N2N=C3c4ccccc4CC3C2c2ccccn2)cc1 (configuration not stated)	> 100 µM	> 100 µM	> 100 µM	45.6 µM	> 100 µM	> 100 µM	29.1 µM	74.4 µM	80.5 µM	> 100 µM	> 100 µM	34 µM	45.3 µM	11.7 µM	11.6 µM	71.5 µM	15.3 µM	21.6 µM	16.2 µM	38.5 µM
O=C(O)CCCSc1nc2ccccc2s1	> 100 µM	> 100 µM	> 100 µM	> 100 µM	> 100 µM	> 100 µM	> 100 µM	> 100 µM	> 100 µM	> 100 µM										
CO[C@H]1C[C@@H]2CC[C@@H](C)[C@@](O)(O2)C(=O)C(=O)N2CCCC[C@H]2C(=O)O[C@H]([C@H](C)C[C@@H]2CC[C@@H](OP(C)(C)=O)[C@H](OC)C2)CC(=O)[C@H](C)/C=C(\C)[C@@H](O)[C@@H](OC)C(=O)[C@H](C)C[C@H](C)/C=C/C=C/C=C/1C	21.7 µM	27.9 µM	16.4 µM	22.3 µM	37.1 µM	23.8 µM	24.8 µM	23.3 µM	18.3 µM	21.8 µM	0.557 µM	12.1 µM	< 0.01 µM		2.96 µM	11 µM	11.8 µM	11.1 µM	< 0.01 µM	
